Among the data in ChEMBL document CHEMBL5230176, “X-ray structure of human aldo-keto reductase 1C3 in complex with a bile acid fused tetrazole inhibitor: experimental validation, molecular docking and structural analysis” (RSC Med Chem, 2023) are inhibition values, retold here.

As usually defined, the inhibition is the drop in the measured response relative to a control, in per cent.

Activity calls are given as the source filed them. No cut-off for these calls is given here.

For one assay, the target named is T1, Aldo-keto reductase family 1 member C2 (Homo sapiens) (UniProt P52895).
T1 sequence (whole entry): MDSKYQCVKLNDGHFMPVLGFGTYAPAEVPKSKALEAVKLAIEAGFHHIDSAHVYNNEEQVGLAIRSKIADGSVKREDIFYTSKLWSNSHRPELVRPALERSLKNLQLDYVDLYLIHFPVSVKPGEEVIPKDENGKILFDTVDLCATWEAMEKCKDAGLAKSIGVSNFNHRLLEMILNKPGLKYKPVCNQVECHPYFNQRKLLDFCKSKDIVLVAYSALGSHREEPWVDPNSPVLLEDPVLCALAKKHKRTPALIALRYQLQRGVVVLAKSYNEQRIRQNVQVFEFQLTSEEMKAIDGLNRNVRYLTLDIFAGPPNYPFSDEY
Description: Inhibition of 6 His-tagged human AKR1C2 expressed in Escherichia coli BL21 (DE3) cells using 9,10-phenanthrenequinone as substrate assessed as substrate reduction by measuring change in NADPH consumption at 40 uM incubated for 15 mins by absorbance based spectroscopic analysis relative to control.
Turning to `C[C@H](CCC(=O)O)[C@H]1CC[C@H]2[C@@H]3CC[C@@H]4C[C@H](O)CC[C@]4(C)[C@H]3Cc3nnnn3[C@]12C`, the inhibition was 13%.

A further assay addresses T2, Aldo-keto reductase family 1 member C3 (Homo sapiens) (UniProt P42330).
T2 sequence (whole entry): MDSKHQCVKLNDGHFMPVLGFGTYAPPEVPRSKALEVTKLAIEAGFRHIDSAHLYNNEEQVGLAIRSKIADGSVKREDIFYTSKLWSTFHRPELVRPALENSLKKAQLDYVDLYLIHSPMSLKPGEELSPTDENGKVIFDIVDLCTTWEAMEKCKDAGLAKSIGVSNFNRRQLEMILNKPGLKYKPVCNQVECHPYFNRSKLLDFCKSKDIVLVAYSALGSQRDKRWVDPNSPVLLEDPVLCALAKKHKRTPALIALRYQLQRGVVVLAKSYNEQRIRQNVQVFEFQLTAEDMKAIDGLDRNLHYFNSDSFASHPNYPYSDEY
Description: Inhibition of 6 His-tagged human AKR1C3 expressed in Escherichia coli BL21 (DE3) cells using 9,10-phenanthrenequinone as substrate assessed as substrate reduction by measuring change in NADPH fluorescence at 33.3 uM incubated for 30 mins by fluorescence spectroscopic analysis relative to control.
Regarding `COC(=O)CC[C@@H](C)[C@H]1CC[C@H]2[C@H]3[C@H](C[C@H](OC(C)=O)[C@]12C)[C@@]1(C)CC[C@@H](OC(C)=O)C[C@H]1Cc1nnnn13`, the inhibition entry was “inactive”.
On the same count and under the same terms, the entry for `C[C@H](CCC(=O)O)[C@H]1CC[C@H]2[C@H]3[C@H](C[C@H](O)[C@]12C)[C@@]1(C)CC[C@@H](O)C[C@H]1Cc1nnnn13` is “inactive”; for `CCOC(=O)CC[C@@H](C)[C@H]1CC[C@H]2[C@H]3[C@H](CC[C@]12C)[C@@]1(C)CC[C@@H](OC(C)=O)C[C@H]1Cc1nnnn13` it is “inactive”; for `C[C@H](CCC(=O)O)[C@H]1CC[C@H]2[C@H]3[C@H](CC[C@]12C)[C@@]1(C)CC[C@@H](O)C[C@H]1Cc1nnnn13` it is 14.2%.
As for `C[C@H](CCC(=O)O)[C@H]1CC[C@H]2[C@@H]3CC[C@@H]4C[C@H](O)CC[C@]4(C)[C@H]3Cc3nnnn3[C@]12C`, the inhibition is 77.9%.
